For 13 molecules, IC50 results are on record in US7312225B2, “Macrocyclic pyrimidines, their production and use as pharmaceutical agents” (Bayer Schering Pharma AG, priority 2002, dated 2007).

Structures are written as SMILES. Where two headings read alike, the source gives them in different places. Bounds are passed on as bounds.

The subject of experiment [1] is MCF7. The experiment can be described thus: Proliferation assay MCF7. It is filed as cell-based. The note with it: Homo sapiens, MCF7, 96 h, 4 days incubation, crystal violet. The source says: (§1) Cultivated human tumor cells (MCF7, […] human breast cancer cells, relative to ATCC HTB22; NCI-H460, human non-small-cell lung cancer cells, ATCC HTB-177, HCT 116, human colon cancer cells, ATCC CCL-247; DU 145, hormone-independent human prostate cancer cells, ATCC HTB-81; MaTu-MDR, hormone-independent, multiple pharmaceutical agent-resistant human breast cancer cells, EPO-GmbH, Berlin) were flattened out at a density of about 5000 cells/measuring point, depending on growth rates of the respective cells in a 96-well multititer plate in 200 μl of the corresponding growth medium. After 24 hours, the cells of one plate (zero-point plate) were colored with crystal violet (see below), while the medium of the other plates was replaced by fresh culture medium (200 μl), to which the test substances were added at various concentrations (0 μmol, as well as in the range of 0.01-30 μmol; the final concentration of the solvent dimethyl sulfoxide was 0.5%). The cells were incubated for 4 days in the presence of test substances. The cell proliferation was determined by coloring the cells with crystal violet: the cells were fixed by adding 20 μl/measuring point of an 11% glutaric aldehyde solution for 15 minutes at room temperature. After three washing cycles of the fixed cells with water, the plates were dried at room temperature. The cells were colored by adding 100 μl/measuring point of a 0.1% crystal violet solution (pH was set at 3 by adding acetic acid). After three washing cycles of the colored cells with water, the plates were dried at room temperature. The dye was dissolved by adding 100 μl/measuring point of a 10% acetic acid solution. The extinction was determined by photometry at a wavelength of 595 nm. The change of cell growth, in percent, was calculated by standardization of the measured values to the extinction values of the zero-point plate (=0%) and the extinction of the untreated (0 μm) cells (=100%).

Experiment [2] has as its target T1, CDK1/CycB (Homo sapiens, UniProt P06493).
T1 construct: GST; purchased ProQinase GmbH, Freiburg; host or cells: baculovirus-infected insect cells (Sf9)
The experiment can be described thus: CDK1/CycB kinase assay. The settings on record: Table I. It is filed as biochemical. The method, then:
Recombinant CDK1- and CycB-GST fusion proteins, purified from baculovirus-infected insect cells (Sf9), were purchased from ProQinase GmbH, Freiburg. Histone IIIS, which was used as a kinase substrate, is commercially available from the Sigma Company.
CDK1/CycB (200 ng/measuring point) was incubated for 15 minutes at 22° C. in the presence of various concentrations of test substances (0 μm, as well as within the range of 0.01-100 μm) in assay buffer [50 mmol of tris/HCl, pH 8.0, 10 mmol of MgCl2, 0.1 mmol of Na ortho-vanadate, 1.0 mmol of dithiothreitol, 0.5 μm of adenosine triphosphate (ATP), 10 μg/measuring point of histone IIIS, 0.2 μCi/measuring point of 33P-gamma ATP, 0.05% NP40, 12.5% dimethyl sulfoxide]. The reaction was stopped by adding EDTA solution (250 mmol, pH 8.0, 14 μl/measuring point).
From each reaction batch, 10 μl was applied to P30 filter strips (Wallac Company), and non-incorporated 33P-ATP was removed by three washing cycles of the filter strips for 10 minutes each in 0.5% phosphoric acid. After the filter strips were dried for 1 hour at 70° C., the filter strips were covered with scintillator strips (MeltiLex™ A, Wallac Company) and baked for one hour at 90° C. The amount of incorporated 33P (substrate phosphorylation) was determined by scintillation measurement in a gamma-radiation measuring device (Wallac).

Experiment [3] has as its target T2, CDK2/CycE (Homo sapiens, UniProt P24941).
T2 construct: GST; purchased ProQinase GmbH, Freiburg; host or cells: baculovirus-infected insect cells (Sf9)
The experiment can be described thus: CDK2/CycE kinase assay. The experiment is classed as biochemical. The method, then:
Recombinant CDK2- and CycE-GST-fusion proteins, purified from baculovirus-infected insect cells (Sf9), were purchased from ProQinase GmbH, Freiburg. Histone IIIS, which was used as a kinase substrate, was purchased from the Sigma Company.
The reaction was stopped by adding EDTA solution (250 mmol, pH 8.0, 14 μl/measuring point).
From each reaction batch, 10 μl was applied to P30 filter strips (Wallac Company), and non-incorporated ^33P-ATP was removed by subjecting the filter strips to three washing cycles for 10 minutes each in 0.5% phosphoric acid. After the filter strips were dried for one hour at 70° C., the filter strips were covered with scintillator strips (MeltiLex™ A, Wallac Company) and baked for one hour at 90° C. The amount of incorporated ^33P (substrate phosphorylation) was determined by scintillation measurement in a gamma-radiation measuring device (Wallac).

The subject of experiment [4] is DU145. The experiment can be described thus: Proliferation assay DU145. It is filed as cell-based. The settings on record: Homo sapiens, DU-145, 96 h; Table II; 4 days incubation, crystal violet.
From the text: as §1

For experiment [5], the system named is H460. The experiment can be described thus: Proliferation assay H460. The note with it: Homo sapiens, NCI-H460, 96 h; Table II; 4 days incubation, crystal violet. It is filed as cell-based.
From the text: as §1

For experiment [6], the system named is MaTu-ADR. The experiment can be described thus: Proliferation assay MaTu-ADR. It is filed as cell-based. The note with it: Homo sapiens, 96 h; Table II; 4 days incubation, crystal violet; read-out: Proliferation IC50 MaTu-ADR.
From the text: as §1

The test system of experiment [7] is HCT116. The experiment can be described thus: Proliferation assay HCT116. The experiment is classed as cell-based. The settings on record: Homo sapiens, HCT-116, 96 h; Table II; 4 days incubation, crystal violet.
From the text: as §1

[8] abbreviates: Table II, read-out: Proliferation IC50 MCF7.
Where [9] appears, read: Table I, read-out: CDK2/CycE IC50.
[10] abbreviates: Table II, read-out: Inhibition IC50 CDK2/CycE.

T1 sequence (P06493 whole entry): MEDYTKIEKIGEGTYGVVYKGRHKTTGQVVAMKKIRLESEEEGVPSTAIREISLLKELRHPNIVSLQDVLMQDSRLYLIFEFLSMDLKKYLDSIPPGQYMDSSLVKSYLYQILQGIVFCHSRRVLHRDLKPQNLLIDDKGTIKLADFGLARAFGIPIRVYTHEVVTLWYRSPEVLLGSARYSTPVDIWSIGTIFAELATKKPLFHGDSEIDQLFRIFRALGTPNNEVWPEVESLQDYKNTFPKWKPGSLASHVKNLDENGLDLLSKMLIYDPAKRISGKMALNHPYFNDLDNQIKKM
T1 sequence (P14635 whole entry partner): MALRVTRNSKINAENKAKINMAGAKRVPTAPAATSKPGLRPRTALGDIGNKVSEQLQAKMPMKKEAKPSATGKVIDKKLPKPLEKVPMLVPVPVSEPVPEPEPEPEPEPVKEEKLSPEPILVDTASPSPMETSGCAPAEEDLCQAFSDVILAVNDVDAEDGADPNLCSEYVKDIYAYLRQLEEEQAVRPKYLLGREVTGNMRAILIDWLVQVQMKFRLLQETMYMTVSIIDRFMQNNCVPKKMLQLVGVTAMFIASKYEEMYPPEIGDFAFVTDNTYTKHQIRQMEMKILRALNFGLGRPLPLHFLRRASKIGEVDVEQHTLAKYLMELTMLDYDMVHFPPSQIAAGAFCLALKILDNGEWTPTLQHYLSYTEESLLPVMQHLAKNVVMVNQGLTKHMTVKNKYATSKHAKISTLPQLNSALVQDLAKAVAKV

On to `O=S1(=O)NCCCCNc2nc(ncc2Br)Nc2cccc1c2` [Example 14.6], for which the IC50 was 0.7 µM in experiment [1] (Table I, read-out: MCF7 IC50); 0.7 µM in experiment [1] (setting [8]); 0.09 µM in experiment [2]; 0.32 µM in experiment [3] (setting [9]); 0.32 µM in experiment [3] (setting [10]); 1.7 µM in experiment [4]. Also, the IC50 was found to be 0.7 µM in experiment [5], 0.3 µM in experiment [6] and 0.5 µM in experiment [7].

Take `O=S1(=O)NCCCC[C@@H](CO)Nc2nc(ncc2Br)Nc2cccc1c2` [Example 14.4]: the IC50 worked out at 4 µM in experiment [1] (Table I, read-out: MCF7 IC50); 1.7 µM in experiment [2]; 0.25 µM in experiment [3] (setting [9]); 2 µM in experiment [3] (setting [10]).

With `O=S1(=O)NCCC(CO)Nc2nc(ncc2Br)Nc2cccc1c2` (single isomer, unassigned) [Example 1.3 (+) Enantiomer], the IC50 stood at 0.9 µM in experiment [1] (setting [8]); 0.023 µM in experiment [3] (setting [10]); 4 µM in experiment [4]; 2.1 µM in experiment [5]; 4 µM in experiment [6]; 1.4 µM in experiment [7].

Molecule `N#Cc1cnc2nc1NCCCNS(=O)(=O)c1cccc(c1)N2` [Example 5.0, 1^5-Cyano-4-thia-2,5,9-triaza-1(2,4)-pyrimidina-3(1,3)-benzenacyclononaphane 4,4-dioxide] registered an IC50 in experiment [2] of 0.3 µM.

As for `O=S1(=O)N[C@H]2CC[C@@H](CC2)Nc2nc(ncc2Br)Nc2cccc1c2` [Example 14.15], the IC50 is 1.3 µM in experiment [1] (Table I, read-out: MCF7 IC50); 1.3 µM in experiment [1] (setting [8]); 1.5 µM in experiment [2]; 0.13 µM in experiment [3] (setting [9]); 1.5 µM in experiment [3] (setting [10]); 1.2 µM in experiment [4]. Also, the IC50 is 1.2 µM in experiment [5], 1.3 µM in experiment [6] and 1 µM in experiment [7].

As to `O=S1(=O)NCCC(O)CNc2nc(ncc2Br)Nc2cccc1c2` (stereo not drawn) [Example 14.8], the IC50 in experiment [2] was found to be 0.2 µM.

In the case of `NS(=O)(=O)c1ccc2cc1OCCCCCNc1nc(ncc1Br)N2` [Example 14.11], the IC50 was 0.75 µM in experiment [1] (Table I, read-out: MCF7 IC50); 0.75 µM in experiment [1] (setting [8]); 0.2 µM in experiment [2]; 2.4 µM in experiment [3] (setting [9]); 2.4 µM in experiment [3] (setting [10]); 0.9 µM in experiment [4]. Also, the results for the IC50 in experiment [5], in experiment [6] and in experiment [7] were 0.9 µM, 1.3 µM and 0.7 µM, respectively.

With `Cc1ccc2cc1S(=O)(=O)NCCCNc1nc(ncc1Br)N2` [Example 14.16], the IC50 is above 10 µM in experiment [1] (Table I, read-out: MCF7 IC50); 0.3 µM in experiment [2]; 4.4 µM in experiment [3] (setting [9]).

Take `O=S1(=O)NCC(O)CNc2nc(ncc2Br)Nc2cccc1c2` (racemic) [Example 1.2, rac-1^5-Bromo-4-thia-2,5,9-triaza-1(2,4)-pyrimidina-3(1,3)-benzenacyclononaphan-7-ol-4,4-dioxide]: the IC50 in experiment [1] (Table I, read-out: MCF7 IC50) is 2.6 µM; in experiment [2], 0.04 µM; in experiment [3] (setting [9]), 0.51 µM.

As to `Brc1cnc2nc1NCCCCOc1cccc(c1)N2` [Example 7.1, 1^5-Bromo-4-oxa-2,9-diaza-1(2,4)-pyrimidina-3(1,3)-benzenacyclononaphane], the results for the IC50 in experiment [1] (setting [8]) and in experiment [3] (setting [10]) were 4 µM and 2.4 µM, respectively.

In the case of `CCc1cnc2nc1NCCCCCNS(=O)(=O)c1cccc(c1)N2` [Example 14.2], the IC50 in experiment [3] (setting [10]) came out at 5 µM.

For `O=S1(=O)NCCCCCNc2nc(ncc2Br)Nc2cccc1c2` [Example 1.0, 1^5-Bromo-4-thia-2,5,11-triaza-1(2,4)-pyrimidina-3(1,3)-benzenacycloundecaphane 4,4-dioxides], the IC50 in experiment [1] (Table I, read-out: MCF7 IC50) was found to be 1.1 µM; in experiment [1] (setting [8]), 1.1 µM; in experiment [2], 0.2 µM; in experiment [3] (setting [9]) it was 0.42 µM; in experiment [3] (setting [10]) it was 0.42 µM; in experiment [4], 2 µM. In addition, the IC50 turned out to be 1.8 µM in experiment [5], 0.7 µM in experiment [6] and 1.3 µM in experiment [7].

With `O=C1NCCCNc2nc(ncc2Br)Nc2cccc(c2)N1` [Example 10.0, 1^5-Bromo-2,4,6,10-tetraaza-1(2,4)-pyrimidina-3(1,3)-benzenacyclodecaphan-5-one], the IC50 was 6 µM in experiment [1] (Table I, read-out: MCF7 IC50); 0.36 µM in experiment [2]; 0.12 µM in experiment [3] (setting [9]).
